pIC50: −log10 of the molar value. Converted amounts (≈) assume the structure as drawn.
Columns and labels:
[1] = Cytotoxicity against human A549 cells assessed as cell viability after 72 hrs by resazurin staining-based fluorimetric analysis; conditions: read-out: MIC
[2] = molecular target: Voltage-gated inwardly rectifying potassium channel KCNH2 (Homo sapiens, UniProt Q12809); test: Inhibition of human ERG
[3] = molecular target: Cytochrome P450 2D6 (Homo sapiens, UniProt P10635); test: Inhibition of human CYP2D6; type: ADME
Cytochrome P450 2D6, sequence (P10635 whole entry): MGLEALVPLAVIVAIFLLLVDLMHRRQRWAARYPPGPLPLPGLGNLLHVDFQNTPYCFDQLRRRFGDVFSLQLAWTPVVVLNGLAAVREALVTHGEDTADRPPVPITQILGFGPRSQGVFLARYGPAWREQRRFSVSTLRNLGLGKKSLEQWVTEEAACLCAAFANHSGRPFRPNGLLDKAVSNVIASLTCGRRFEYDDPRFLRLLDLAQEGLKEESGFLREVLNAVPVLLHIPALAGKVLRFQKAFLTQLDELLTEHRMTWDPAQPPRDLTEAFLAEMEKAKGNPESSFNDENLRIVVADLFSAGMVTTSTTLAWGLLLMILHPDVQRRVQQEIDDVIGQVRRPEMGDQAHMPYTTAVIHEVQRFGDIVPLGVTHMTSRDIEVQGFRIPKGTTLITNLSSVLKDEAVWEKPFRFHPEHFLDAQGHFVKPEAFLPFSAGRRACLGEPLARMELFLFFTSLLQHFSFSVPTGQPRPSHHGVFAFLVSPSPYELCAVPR

[4] = molecular target: Cytochrome P450 2C19 (Homo sapiens, UniProt P33261); test: Inhibition of human CYP2C19; type: ADME
Cytochrome P450 2C19, sequence (P33261 whole entry): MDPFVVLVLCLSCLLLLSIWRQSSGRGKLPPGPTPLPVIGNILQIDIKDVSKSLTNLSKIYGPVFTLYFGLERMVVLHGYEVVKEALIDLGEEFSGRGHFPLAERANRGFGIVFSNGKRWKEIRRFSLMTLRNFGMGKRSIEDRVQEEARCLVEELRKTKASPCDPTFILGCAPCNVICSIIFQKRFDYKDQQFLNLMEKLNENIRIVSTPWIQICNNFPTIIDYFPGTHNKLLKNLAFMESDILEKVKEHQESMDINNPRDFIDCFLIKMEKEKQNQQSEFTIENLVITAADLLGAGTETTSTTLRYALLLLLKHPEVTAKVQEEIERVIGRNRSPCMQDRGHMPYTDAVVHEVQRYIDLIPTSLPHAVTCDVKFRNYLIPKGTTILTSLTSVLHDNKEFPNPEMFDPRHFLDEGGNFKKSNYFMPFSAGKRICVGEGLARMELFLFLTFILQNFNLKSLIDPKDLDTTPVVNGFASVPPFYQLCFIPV

[5] = molecular target: Cytochrome P450 2C9 (Homo sapiens, UniProt P11712); test: Inhibition of human CYP2C9; type: ADME
Cytochrome P450 2C9, sequence (P11712 whole entry): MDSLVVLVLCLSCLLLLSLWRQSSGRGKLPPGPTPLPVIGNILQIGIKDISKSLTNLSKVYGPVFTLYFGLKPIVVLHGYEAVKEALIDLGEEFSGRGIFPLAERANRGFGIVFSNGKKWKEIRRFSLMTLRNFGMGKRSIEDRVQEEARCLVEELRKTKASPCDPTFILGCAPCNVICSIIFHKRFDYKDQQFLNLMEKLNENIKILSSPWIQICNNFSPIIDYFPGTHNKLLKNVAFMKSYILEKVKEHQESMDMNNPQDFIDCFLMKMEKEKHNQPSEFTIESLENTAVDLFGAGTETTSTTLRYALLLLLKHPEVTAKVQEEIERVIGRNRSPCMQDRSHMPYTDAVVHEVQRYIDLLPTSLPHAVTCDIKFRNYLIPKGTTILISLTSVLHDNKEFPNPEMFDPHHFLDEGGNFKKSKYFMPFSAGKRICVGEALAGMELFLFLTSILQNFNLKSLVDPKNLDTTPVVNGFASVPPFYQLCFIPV

[6] = molecular target: T1, Cytochrome P450 1A2 (Homo sapiens, UniProt P05177); test: Inhibition of human CYP1A2; type: ADME
T1 sequence (P05177 whole entry): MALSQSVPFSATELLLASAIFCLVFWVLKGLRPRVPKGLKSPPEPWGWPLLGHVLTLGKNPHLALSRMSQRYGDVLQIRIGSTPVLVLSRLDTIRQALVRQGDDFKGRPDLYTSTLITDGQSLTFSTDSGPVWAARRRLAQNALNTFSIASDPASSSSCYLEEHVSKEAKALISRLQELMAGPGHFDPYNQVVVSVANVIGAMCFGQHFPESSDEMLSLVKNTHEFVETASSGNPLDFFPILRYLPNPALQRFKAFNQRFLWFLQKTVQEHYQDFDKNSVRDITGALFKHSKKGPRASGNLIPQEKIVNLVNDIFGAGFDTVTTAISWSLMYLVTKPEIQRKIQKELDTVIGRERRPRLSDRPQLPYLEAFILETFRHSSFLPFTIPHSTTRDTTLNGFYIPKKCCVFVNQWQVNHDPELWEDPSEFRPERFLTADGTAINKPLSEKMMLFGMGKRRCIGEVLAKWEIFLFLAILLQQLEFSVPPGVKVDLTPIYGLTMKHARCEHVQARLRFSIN

[7] = Inhibition of Mycobacterium smegmatis thioredoxin 6xHis-tagged decaprenylphosphoryl-beta-D-ribose2'-epimerase1 overexpressed in Escherichia coli rossetta cells using farnesyl-phosphoryl-beta-D-ribofuranose as substrate; design: species or system Mycolicibacterium smegmatis
[8] = system: Mycobacterium tuberculosis; test: Bactericidal activity against hypoxia induced nonreplicating persistent Mycobacterium tuberculosis H37Rv after 7 days; type: functional; conditions: 168 h
[9] = system: Mycobacterium tuberculosis; test: Bactericidal activity against Mycobacterium tuberculosis H37Rv ATCC 27294 after 5 days by microdilution method; type: functional; conditions: H37Rv ATCC 27294, 120 h
[10] = system: Mycobacterium tuberculosis; test: Antimicrobial activity against Mycobacterium tuberculosis H37Rv ATCC 27294 assessed as growth inhibition after 5 days by microdilution method; type: functional; conditions: H37Rv ATCC 27294, 120 h
[11] = molecular target: Cytochrome P450 3A4 (Homo sapiens, UniProt P08684); test: Inhibition of human CYP3A4; type: ADME
Cytochrome P450 3A4, sequence (P08684 whole entry): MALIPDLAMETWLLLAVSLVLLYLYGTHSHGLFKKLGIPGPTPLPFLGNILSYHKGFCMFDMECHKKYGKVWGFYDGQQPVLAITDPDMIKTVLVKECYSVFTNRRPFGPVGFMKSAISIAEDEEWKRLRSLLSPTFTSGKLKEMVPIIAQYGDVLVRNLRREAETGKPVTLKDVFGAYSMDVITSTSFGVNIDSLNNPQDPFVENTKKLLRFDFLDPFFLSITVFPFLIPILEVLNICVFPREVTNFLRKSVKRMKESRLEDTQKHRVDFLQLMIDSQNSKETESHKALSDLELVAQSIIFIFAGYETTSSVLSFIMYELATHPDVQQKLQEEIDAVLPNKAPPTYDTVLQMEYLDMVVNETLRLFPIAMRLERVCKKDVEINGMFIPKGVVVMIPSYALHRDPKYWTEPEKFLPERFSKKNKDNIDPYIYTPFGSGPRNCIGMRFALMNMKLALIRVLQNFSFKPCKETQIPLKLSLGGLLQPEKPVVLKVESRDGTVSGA

[12] = Inhibition of Mycobacterium smegmatis thioredoxin 6xHis-tagged decaprenylphosphoryl-beta-D-ribose2'-epimerase1 C394G mutant overexpressed in Escherichia coli rossetta cells using farnesyl-phosphoryl-beta-D-ribofuranose as substrate; design: species or system Mycolicibacterium smegmatis
[13] = Inhibition of Mycobacterium smegmatis thioredoxin 6xHis-tagged decaprenylphosphoryl-beta-D-ribose2'-epimerase1 Y321H mutant overexpressed in Escherichia coli rossetta cells using farnesyl-phosphoryl-beta-D-ribofuranose as substrate; design: species or system Mycolicibacterium smegmatis
[14] = system: Mycobacterium tuberculosis; test: Antimicrobial activity against Mycobacterium tuberculosis H37Rv ATCC 27294 infected in BALB/C mouse chronic infection model assessed as reduced bacterial burden in lungs at 30 to 100 mg/kg, po administered on day 28 measured after 4 weeks; type: functional, Lung; conditions: dose mg/kg 30-100
[15] = system: Mycobacterium tuberculosis; test: Bactericidal activity against Mycobacterium tuberculosis H37Rv ATCC 27294 infected in human THP1 cells assessed as reduction in CFU at 1 to 4 times MIC by time-kill method; type: functional, THP-1
[16] = system: Mycobacterium tuberculosis; test: Bactericidal activity against Mycobacterium tuberculosis H37Rv ATCC 27294 infected in human THP1 cells assessed as reduction in CFU at 1 to 4 times MIC at day 10 by time-kill method; type: functional, THP-1
[17] = system: Mycobacterium tuberculosis; test: Bactericidal activity against hypoxia induced nonreplicating persistent Mycobacterium tuberculosis H37Rv assessed as reduction in CFU at 30 times MIC; type: functional
[18] = system: Mus musculus; test: fT>MIC in BALB/C mouse infected with Mycobacterium tuberculosis H37Rv ATCC 27294 at 50 to 200 mg/kg, po qd after 10 to 24 hrs
[19] = AUC in BALB/C mouse infected with Mycobacterium tuberculosis H37Rv ATCC 27294 at 50 to 200 mg/kg, po qd administered for 24 days by LC-MS/MS analysis; type: ADME, organism-based; design: dose 50-200 mg/kg, route oral; conditions: plasma
[20] = system: Mycobacterium tuberculosis; test: Antimicrobial activity against po dosed Mycobacterium tuberculosis H37Rv ATCC 27294 infected BALB/C mouse chronic infection model assessed as reduced bacterial burden in lungs administered on day 28 measured after 4 weeks; type: functional, organism-based; conditions: Lung
[21] = system: Mycobacterium tuberculosis; test: Antimicrobial activity against po dosed Mycobacterium tuberculosis H37Rv ATCC 27294 infected BALB/C mouse acute infection model assessed as reduced bacterial burden in lungs administered 3 days postinfection measured after 4 weeks; type: functional, organism-based; conditions: Lung
[22] = Unbound fraction in human plasma; type: ADME, cell-free
[23] = Kinetic solubility of the compound in phosphate buffer at pH 7.4 after 24 hrs by LC-MS analysis; type: physicochemical; conditions: read-out: Kinetic_solubility
[24] = system: Mycobacterium tuberculosis; test: Antimicrobial activity against Mycobacterium tuberculosis H37Rv ATCC 27294 infected in BALB/C mouse acute infection model assessed as reduced bacterial burden in lungs at 50 to 100 mg/kg, po administered 3 days postinfection measured after 4 weeks; type: functional, Lung; conditions: dose mg/kg 50-100

Voltage-gated inwardly rectifying potassium channel KCNH2, sequence (Q12809 whole entry): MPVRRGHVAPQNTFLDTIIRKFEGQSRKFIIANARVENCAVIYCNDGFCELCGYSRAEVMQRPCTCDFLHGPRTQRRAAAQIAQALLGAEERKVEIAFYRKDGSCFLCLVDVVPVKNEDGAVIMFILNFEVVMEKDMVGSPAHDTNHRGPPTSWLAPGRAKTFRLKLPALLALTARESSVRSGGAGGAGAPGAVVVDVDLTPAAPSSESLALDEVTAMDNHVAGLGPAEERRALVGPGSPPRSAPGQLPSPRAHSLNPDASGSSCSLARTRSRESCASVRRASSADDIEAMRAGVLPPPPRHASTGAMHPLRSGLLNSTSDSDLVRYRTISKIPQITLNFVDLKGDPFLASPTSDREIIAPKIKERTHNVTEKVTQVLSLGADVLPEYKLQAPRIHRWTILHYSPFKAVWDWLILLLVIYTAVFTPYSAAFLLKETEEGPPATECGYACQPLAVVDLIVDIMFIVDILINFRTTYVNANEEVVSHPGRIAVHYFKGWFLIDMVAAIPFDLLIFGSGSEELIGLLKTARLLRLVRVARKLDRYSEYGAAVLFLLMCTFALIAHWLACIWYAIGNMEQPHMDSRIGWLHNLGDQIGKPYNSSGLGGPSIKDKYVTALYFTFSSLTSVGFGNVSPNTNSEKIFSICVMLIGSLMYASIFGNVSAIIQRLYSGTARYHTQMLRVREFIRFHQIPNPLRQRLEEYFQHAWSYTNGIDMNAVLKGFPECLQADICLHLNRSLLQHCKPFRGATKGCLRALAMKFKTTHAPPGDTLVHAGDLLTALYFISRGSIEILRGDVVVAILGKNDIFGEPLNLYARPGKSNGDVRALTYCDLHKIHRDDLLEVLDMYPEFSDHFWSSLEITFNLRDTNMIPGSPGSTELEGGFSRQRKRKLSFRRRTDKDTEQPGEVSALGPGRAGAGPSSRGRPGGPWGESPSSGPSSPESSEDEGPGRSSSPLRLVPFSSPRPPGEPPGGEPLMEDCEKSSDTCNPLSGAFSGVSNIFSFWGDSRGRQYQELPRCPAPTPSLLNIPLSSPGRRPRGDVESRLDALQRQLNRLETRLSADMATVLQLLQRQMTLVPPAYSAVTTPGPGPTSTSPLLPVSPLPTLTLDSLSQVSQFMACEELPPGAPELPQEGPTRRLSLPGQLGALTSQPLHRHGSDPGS

Structure (SMILES): Cc1ccccc1Cn1cc(C(=O)NCC2CC2)c2ncccc21
- MCC at 72 h [1]: 94 µM
- INH [2]: 28 µM

Structure (SMILES): COc1ncnc(Cn2cc(C(=O)NCCO)c3ncc(C)cc32)c1C [TBA-7371]
- INH [3]: > 50 µM
- INH [4]: > 50 µM
- INH [5]: > 50 µM
- INH [6]: > 50 µM
- MCC at 72 h [1]: > 100 µM
- pIC50 [7]: 8.00
- MBC [8]: > 100 µM
- MBC [9]: 0.78 µM (≈ 0.277 µg/mL)
- MIC [10]: 1.56 µM (≈ 0.554 µg/mL)
- INH [11]: > 50 µM
- INH [2]: > 33 µM
- pIC50 [12]: 8.00
- pIC50 [13]: < 5.00

Structure (SMILES): CCc1nc2cc(Cl)ccn2c1C(=O)NCc1ccc(N2CCN(c3ccc(F)cc3)CC2)cc1
- pIC50 [7]: < 5.00
- MBC [8]: > 100 µM
- MBC [9]: > 200 µM
- MIC [10]: 0.017 µM (≈ 0.00836 µg/mL)

Structure (SMILES): COCCNC(=O)c1cn(Cc2cc(F)cnc2OC)c2cccnc12
- pIC50 [7]: 8.40
- MIC [10]: 0.78 µM (≈ 0.28 µg/mL)

Structure (SMILES): Cc1ccc(Cn2cc(C(=O)NCC3CCC(F)(F)CC3)c3ncccc32)c(C)c1
- pIC50 [7]: 5.10
- MIC [10]: > 200 µM

Structure (SMILES): COc1ncnc(Cn2cc(C(=O)NCCF)c3ncccc32)c1C
- log10cfu [14]: >1.5
- log10cfu [15]: 1
- log10cfu [16]: 4
- log10cfu [17]: 1.5
- %T>MIC [18]: 25%
- AUC at 576 h [19]: 200 µM·h
- Activity [20]: Dose-dependent effect
- Activity [21]: Dose-dependent effect
- INH [3]: > 50 µM
- INH [4]: > 50 µM
- INH [5]: > 50 µM
- INH [6]: > 50 µM
- fraction unbound [22]: 0.098
- solubility kinetic at 24 h [23]: 8 µM (≈ 2.75 µg/mL)
- MCC at 72 h [1]: > 100 µM
- pIC50 [7]: 8.00
- MBC [8]: 50 µM (≈ 17.2 µg/mL)
- MBC [9]: 1.56 µM (≈ 0.536 µg/mL)
- MIC [10]: 1.56 µM (≈ 0.536 µg/mL)
- INH [11]: > 50 µM
- INH [2]: > 33 µM
- log10cfu [24]: >1.5
- pIC50 [12]: 7.82
- pIC50 [13]: < 5.00

Structure (SMILES): Cc1ccccc1Cn1cc(C(=O)NCCN2CCCCC2)c2ncccc21
- pIC50 [7]: < 5.00
- MIC [10]: > 200 µM

Structure (SMILES): COc1ncnc(Cn2cc(C(=O)NCCF)c3ncc(C)cc32)c1C
- INH [3]: > 50 µM
- INH [4]: > 50 µM
- INH [5]: > 50 µM
- INH [6]: > 50 µM
- fraction unbound [22]: 0.05
- solubility kinetic at 24 h [23]: 4 µM (≈ 1.43 µg/mL)
- MCC at 72 h [1]: > 100 µM
- pIC50 [7]: 8.52
- MBC [8]: 100 µM (≈ 35.7 µg/mL)
- MBC [9]: < 0.39 µM
- MIC [10]: < 0.39 µM
- INH [11]: > 50 µM
- INH [2]: > 33 µM
- pIC50 [12]: 8.15
- pIC50 [13]: < 5.00

Structure (SMILES): COc1ncnc(Cn2cc(C(=O)NCCO)c3ncccc32)c1C
- pIC50 [7]: 7.05
- MIC [10]: 14 µM (≈ 4.78 µg/mL)

Structure (SMILES): Cc1cnc2c(C(=O)NCCF)cn(Cc3ncnc(N(C)C)c3C)c2c1
- pIC50 [7]: 7.43
- MIC [10]: 0.78 µM (≈ 0.289 µg/mL)

Structure (SMILES): COc1ncnc(Cn2cc(C(=O)NCC3CC3)c3ncccc32)c1C
- AUC at 576 h [19]: 200 µM·h
- INH [3]: > 50 µM
- INH [4]: > 50 µM
- INH [5]: > 50 µM
- INH [6]: > 50 µM
- MCC at 72 h [1]: > 100 µM
- INH [11]: > 50 µM
- INH [2]: > 33 µM

Structure (SMILES): Cc1cccnc1Cn1cc(C(=O)NCC2CC2)c2ncccc21
- pIC50 [7]: 7.08
- MIC [10]: 27 µM (≈ 8.65 µg/mL)

Structure (SMILES): Cc1c(Cn2cc(C(=O)NCCF)c3ncccc32)ncnc1N(C)C
- pIC50 [7]: 7.70
- MIC [10]: 6.25 µM (≈ 2.23 µg/mL)

Structure (SMILES): O=C(NCC1CC1)c1cn(CC2CCOCC2)c2cccnc12
- pIC50 [7]: 5.60
- MIC [10]: > 100 µM

Structure (SMILES): Cc1ccc(Cn2cc(C(=O)NCCc3ccncc3)c3ncccc32)c(C)c1
- pIC50 [7]: 5.26
- MIC [10]: > 200 µM

Structure (SMILES): COc1ncnc(Cn2cc(C(=O)NC[C@H](C)F)c3ncc(C)cc32)c1C
- pIC50 [7]: 7.85
- MIC [10]: 0.156 µM (≈ 0.0579 µg/mL)

Structure (SMILES): COc1ccc(Cn2cc(C(=O)N(C)CC3CC3)c3ncccc32)cc1
- pIC50 [7]: < 5.00
- MIC [10]: > 200 µM

Structure (SMILES): Cc1ccc(Cn2cc(C(=O)NCCF)c3ncccc32)c(C)c1
- pIC50 [7]: 8.00
- MIC [10]: 1.56 µM (≈ 0.508 µg/mL)

Structure (SMILES): COc1ncnc(Cn2cc(C(=O)NC[C@@H](C)F)c3ncccc32)c1C
- MIC [10]: 0.78 µM (≈ 0.279 µg/mL)

Structure (SMILES): Cc1ccc(Cn2cc(C(=O)NCC3CC3)c3ncccc32)cc1
- pIC50 [7]: 7.68
- MIC [10]: 13.2 µM (≈ 4.22 µg/mL)

Structure (SMILES): COc1ccc(Cn2cc(C(=O)NCC3CC3)c3cnccc32)cc1
- pIC50 [7]: 6.00
- MIC [10]: > 200 µM

Structure (SMILES): COc1ccc(Cn2cc(C(=O)NCC3CC3)c3ncccc32)cc1
- pIC50 [7]: 8.15
- MIC [10]: 6.25 µM (≈ 2.1 µg/mL)

Structure (SMILES): COc1cccc(F)c1Cn1cc(C(=O)NCC2CC2)c2ncccc21
- pIC50 [7]: 8.22
- MIC [10]: 1.56 µM (≈ 0.551 µg/mL)
